Experiments:
[1] = tested on: Uterine bleeding; assay: Comparison study in monkey, IUS vehicle vs LNG vs NP, uterine bleeding; assay type: in vivo, cynomolgus macaques; settings: for number of bleeding days: first 7 days after insertion neglected
Method: Animal Treatments: Adult cycling cynomolgus macaques were monitored to record regular menstrual cycles. Uterine bleeding was assessed daily by vaginal swabs (for sporadic vaginal spotting) and menstrual blood loss by vaginal tampons. After 2 menstrual cycles (˜60 days), the animals were assigned to treatment groups and laparotomized between days 6-8 (ideally day 7) of the follicular phase and an IUS was inserted by hysterotomy into the uterine lumen and sutured in place. Treatment IUS was as follows (n=5-6/group): • Group 1: Vehicle IUS • Group 2: 2 μg/day LNG • Group 3: 5 μg/day LNG • Group 4: 2 μg/day NP • Group 5: 5 μg/day NP Classification of bleeddings: Bleedings were grouped in three categories: a) positive swap or frank menses, which is the most heavy form of bleeding (BB, red colour), b) light positive swab, which is an intermediated type of bleeding (B, purple colour) and c) spot positive swab, which is a very light form of bleeding (S, orange colour). For evaluation of bleeding days, the first 7 days after insertion of the IUS were neglected, because the surgical insertion procedure already causes some bleedings in these days, which is unrelated progestin effects. FIGS. 2 and 3 and Tables 1 and 2 illustrate a comparison of 2 μg/d LNG release with 5 μg/d LNG release for 80 days with the IUS for each animal.

[2] = tested on: IGFBP-1, Cyp26a1; assay: Gene expression analysis of uterine tissue after IUS (rods) in rats; assay type: in vivo; settings: local administration by IUS (rods) in rats, identical release rates
Method: The left uterine horn remained untreated for internal comparison.
The uterine tissue was homogenized in 800 μl of RLT lysis buffer (Qiagen, Hilden, Germany; #79216) using a Precellys24 homogenizer (Peqlab, Erlangen, Germany; 2.8 mm ceramic beads; #91-PCS-CK28, 2×6000 rpm). 400 μl of the homogenate obtained were used for isolating total RNA, using the QlAsymphony RNA kit (Qiagen, #931636) on a QlAsymphony SP robot for automated sample preparation. Reverse transcription of from 1 μg to 4 μg of total RNA was carried out using the SuperScript III first-strand synthesis system (Invitrogen, Carlsbad, USA; #18080-051) according to the random hexamer procedure.
Gene expression analysis was carried out with from 50 ng to 200 ng of cDNA per reaction on an SDS7900HT Real.time PCR system (Applied Biosystems, Carlsbad, USA) using TaqMan probes (Applied Biosystems; IGFBP-1 Rn00565713_m1, Cyp26a1 Rn00590308_m1, PPIA Rn00690933_m1) and the Fast Blue qPCR MasterMix Plus (Eurogentec, Liege, Belgium; #RT-QP2X-03+FB). For relative quantification, cyclophilin A (PPIA) was used as an endogenous control. Relative expression levels were calculated according to the comparative delta delta CT method.

[3] = Progestational activity compared to LNG
[4] = tested on: uterine horn; assay: Weight gain of IUS-carrying uterine horn in ovary-resected rats; assay type: in vivo; settings: E2 treated, IUS (rod) in right uterine horn
Method: The local uterine action of the a.m. progestin compared to systemic side effects (dissociation) was investigated on the basis of studies using rats (see Example 4; FIGS. 4 to 6). The uterus of ovary-resected rats responded to implantation of progestin-containing IUS (rods) with decidualization and weight gain. The local progestin effects were also determined on the basis of changes in gene expression. […] The left uterine horn remained untreated for internal comparison.

[5] = in vivo
[6] = release rate 2 μg/d, total of 6 test animals
[7] = release rate 5 μg/d, total of group (LNG: 5 test animals)

SMILES	bleeding reduction compared to LNG ([1]; 2 μg/d NP versus 2 μg/d LNG)	bleeding compared to vehicle IUS group ([1]; 2 μg/d release group)	bleeding compared to vehicle IUS group ([1]; 5 μg/d release group)	number of bleeding days [1, 6]	number of bleeding days [1, 7]	potency in inducing gene expression relative to levonorgestrel [2]	progestional activity compared to LNG [3]	local efficacy by way of weight gain in the IUS-carrying uterine horn [4]	break-down rate [5]	systemic stability / plasma clearance compared to LNG [5]
CC[C@]12CC[C@H]3[C@@H](CCC4=CC(=O)CC[C@@H]43)[C@@H]1[C@@H]1C[C@@H]1[C@@]21CCCO1 [compound A, 18-methyl-15β,16β-methylene-19-nor-20-spirox-4-en-3-one]	higher bleeding reduction	marked reduction of bleeding	marked reduction of bleeding	4 days	No bleeding	4- to 7 fold	higher progestional activity	dose-dependent local efficacy	very fast break-down rate	low systemic stability/higher plasma clearance
CC[C@]12CCC3C4CCC(=O)C=C4C4CC4C3C1[C@@H]1C[C@@H]1[C@@]21CCCO1 (stereo partly drawn) [compound B, 18-methyl-6α,7α,15β,16β-dimethylene-19-nor-20-spirox-4-en-3-one]	–	–	–	–	–	–	–	dose-dependent local efficacy	very fast break-down rate	–
C#C[C@]1(O)CC[C@H]2[C@@H]3CCC4=CC(=O)CC[C@@H]4[C@H]3CC[C@@]21CC [LNG, levonorgestrel, reference compound]	–	–	–	24 days	4 days	–	–	–	–	–

Source: patent US20160262923A1, “INTRAUTERINE DELIVERY SYSTEM” (BAYER OY, priority 2013, published 2016)
